In US12606528B2, “Methods and materials for inhibiting NF-kB activity” (University of Pittsburgh - Of the Commonwealth System of …, priority 2019, dated 2026):
Read-outs that look alike come from different tables or passages of the source.

What was measured:
[1] = system: NF-κB; test: NF-κB assay: THP1-NF-κB-LUC cells, LPS-stimulated secreted luciferase; type: cell-based; details: THP1-NF-κB-LUC cells, read-out: IC50 (NF-κB assay)
Procedure, shortened: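 THP1-NF-κB-LUC cells (25k/well) were pretreated with compounds for 2 h, then stimulated with LPS (10 ng/mL) for 18 h. Secreted luciferase was measured and normalized to vehicle, and IC50 was fitted from the concentration series.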

[2] = system: TNF release; test: TNF assay: TNF release from LPS-stimulated human PBMCs (TNF ELISA); type: cell-based; details: read-out: IC50 (TNF assay)
Procedure, shortened: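 Human PBMCs at 10k/well pretreated with compound dilutions 2 h, then stimulated with LPS (10 ng/mL) for 18 h. TNF in supernatants quantified by ELISA; IC50 for inhibition of TNF release fitted from concentration–response.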

[3] = PBMC, LPS-stimulated human PBMCs, TNF ELISA
[4] = compounds 2 hours before LPS (10 ng/mL) for 18 hours, secreted luciferase
[5] = PBMC, human PBMCs, compounds 2 hours before LPS (10 ng/ml) for 18 hours, supernatant TNF ELISA

IC50 ([1]; LPS-stimulated) [nM]	IC50 [2, 3] [nM]	IC50 [1, 4] [nM]	IC50 [2, 5] [nM]	IC50 ([2]; human PBMCs, compounds 2 hours before LPS (10 ng/ml) for 18 hours, supernatant TNF ELISA) [nM]	Structure (SMILES)
> 10000	> 10000	–	–	–	CC(C)S(=O)(=O)c1[nH]c(-c2ccccc2)nc1S(=O)(=O)c1ccc(F)cc1 [BC19581]
> 10000	> 10000	–	–	–	CN1CCN(C(=O)c2ccc3nc(-c4ccc(C#N)cc4)c(-c4ccc(C#N)cc4)nc3c2)CC1 [BC19446]
1000 to 10000	> 10000	–	–	–	CC(C)OC(=O)Nc1ccc2nc(-c3ccc(F)cc3)c(-c3ccc(F)cc3)nc2c1 [BC19195]
> 10000	> 10000	–	–	–	CN1CCN(C(=O)c2ccc3nc(-c4ccc(F)cc4)c(C(F)(F)F)nc3c2)CC1 [BC19110]
100 to 1000	< 100	–	–	–	CS(=O)(=O)c1oc(-c2ccccc2)nc1S(=O)(=O)c1ccc(F)c(F)c1 [BC19262]
–	–	< 100	> 10000	–	Cc1c(Cl)cc2c(c1S(=O)(=O)Nc1ccc(F)c(F)c1)OCC(=O)N2 [BC19489]
1000 to 10000	1000 to 10000	–	–	–	CCCS(=O)(=O)c1sc(-c2ccc(Cl)cc2)nc1S(=O)(=O)c1ccc(Cl)cc1 [BC19621]
1000 to 10000	1000 to 10000	–	–	–	CC(C)S(=O)(=O)c1sc(-c2ccc(Cl)cc2)nc1S(=O)(=O)c1ccc(Cl)cc1 [BC19622]
–	–	1000 to 10000	> 10000	–	CCC1Oc2cc(S(=O)(=O)Nc3ccc(C(F)(F)F)cc3Cl)c(Br)cc2NC1=O (centres unmarked) [BC19371]
–	–	100 to 1000	> 10000	–	CCOc1ccc(NS(=O)(=O)c2cc3c(cc2Cl)NC(=O)C(C)O3)cc1 (centres unmarked) [BC19281]
100 to 1000	1000 to 10000	–	–	–	CN(C)CCCNS(=O)(=O)c1ccc2nc(-c3ccc(F)cc3)c(-c3ccc(F)cc3)nc2c1 [BC19562]
100 to 1000	< 100	–	–	–	CCC[S+]([O-])c1snc(-c2ccc(F)cc2)c1S(=O)(=O)c1ccc(Cl)cc1 (centres unmarked) [BC19681]
–	–	100 to 1000	> 10000	–	CCS(=O)(=O)c1cc2c(c(S(=O)(=O)Nc3ccc(F)cc3Cl)c1)OCC(=O)N2 [BC19442]
–	–	< 100	> 10000	–	CCC1Oc2cc(S(=O)(=O)Nc3ccc(OC)cc3)c(Br)cc2N(C)C1=O (centres unmarked) [BC19936]
–	–	< 100	1000 to 10000	–	CCC1Oc2c(cc(Br)cc2S(=O)(=O)Nc2ccc(C)c(Cl)c2)N(C)C1=O (centres unmarked) [BC19937]
100 to 1000	1000 to 10000	–	–	–	CCC[S+]([O-])c1oc(-c2ccc(Cl)cc2)nc1S(=O)(=O)c1ccc(Cl)cc1 (centres unmarked) [BC19417]
1000 to 10000	100 to 1000	–	–	–	Cc1ccc(-c2nc(S(=O)(=O)c3ccc(Cl)cc3)c(S(C)(=O)=O)o2)cc1 [BC19126]
–	–	> 10000	> 10000	–	O=C1COc2cc(S(=O)(=O)NCCc3ccc(OC(F)(F)F)cc3)c(Br)cc2N1 [BC19387]
–	–	< 100	> 10000	–	CC1Oc2c(cc(Cl)cc2S(=O)(=O)Nc2ccc(Cl)cc2)NC1=O (centres unmarked) [BC19697]
–	–	< 100	> 10000	–	CS(=O)(=O)c1cc2c(c(S(=O)(=O)Nc3ccc(Cl)cc3)c1)OCC(=O)N2 [BC19483]
< 100	< 100	–	–	–	C#CCNC(=O)c1ccc2nc(-c3cccs3)c(-c3ccc(F)cc3)nc2c1 [BC19120]
1000 to 10000	> 10000	–	–	–	Cc1cnc(-c2ccc3nc(-c4ccc(F)cc4)c(-c4cccs4)nc3c2)o1 [BC19249]
–	–	100 to 1000	> 10000	–	CCC1Oc2cc(S(=O)(=O)Nc3cccc(SC)c3)c(Cl)cc2NC1=O (centres unmarked) [BC19213]
< 100	< 100	–	–	–	CC(C)CS(=O)(=O)c1oc(-c2ccccc2)nc1S(=O)(=O)c1ccc(Cl)cc1 [BC19278]
1000 to 10000	1000 to 10000	–	–	–	CCC[S+]([O-])c1sc(-c2ccc(Cl)cc2)nc1S(=O)(=O)c1ccc(F)cc1 (centres unmarked) [BC19535]
–	–	100 to 1000	> 10000	–	CC(C)CC1Oc2c(cc(Br)cc2S(=O)(=O)Nc2ccccc2)NC1=O (centres unmarked) [BC19761]

IC50 ([1]; LPS-stimulated) [nM]	IC50 [2, 3] [nM]	IC50 [1, 4] [nM]	IC50 [2, 5] [nM]	IC50 ([2]; human PBMCs, compounds 2 hours before LPS (10 ng/ml) for 18 hours, supernatant TNF ELISA) [nM]	Structure (SMILES)
> 10000	> 10000	–	–	–	COCC[S+]([O-])c1sc(-c2ccc(Cl)cc2)nc1S(=O)(=O)c1ccc(Cl)cc1 (centres unmarked) [BC19479]
–	–	1000 to 10000	> 10000	–	Cc1ccc(NS(=O)(=O)c2cc3c(cc2Br)NC(=O)C(CC(C)C)O3)cc1Cl (centres unmarked) [BC19768]
–	–	< 100	> 10000	–	CCc1cccc(NS(=O)(=O)c2cc3c(cc2Cl)NC(=O)C(C)O3)c1 (centres unmarked) [BC19711]
> 10000	> 10000	–	–	–	Cn1c(-c2ccccc2)nc(S(=O)(=O)c2ccc(F)cc2)c1[S+](C)[O-] (centres unmarked) [BC19644]
> 10000	> 10000	–	–	–	Fc1ccc(-c2nc3ccc(-c4nnc[nH]4)cc3nc2C(F)(F)F)cc1 [BC19159]
–	–	< 100	> 10000	–	CCc1ccc(NS(=O)(=O)c2cc3c(cc2Cl)NC(=O)C(CC)O3)cc1 (centres unmarked) [BC19741]
–	–	< 100	> 10000	–	CCC1Oc2c(cc(Cl)cc2S(=O)(=O)Nc2ccc(OC(F)(F)F)cc2)NC1=O (centres unmarked) [BC19734]
–	–	< 100	> 10000	–	CCc1cccc(NS(=O)(=O)c2cc(Br)cc3c2OC(CC)C(=O)N3C)c1 (centres unmarked) [BC19915]
–	–	< 100	> 10000	–	CC1Oc2cc(S(=O)(=O)Nc3ccc(F)c(F)c3)c(Cl)cc2NC1=O (centres unmarked) [BC19698]
–	–	< 100	1000 to 10000	–	CCC1Oc2c(cc(Br)cc2S(=O)(=O)NCc2ccc(F)cc2F)NC1=O (centres unmarked) [BC19374]
–	–	> 10000	> 10000	–	CCCNS(=O)(=O)c1cc2c(cc1Cl)NC(=O)C(CC)O2 (centres unmarked) [BC19214]
–	–	> 10000	> 10000	–	CCC1Oc2cc(S(=O)(=O)NCc3ccc(OC(F)(F)F)cc3)c(Br)cc2NC1=O (centres unmarked) [BC19369]
–	–	< 100	> 10000	–	CC1Oc2c(cc(Cl)cc2S(=O)(=O)Nc2ccc(OC(F)(F)F)cc2)NC1=O (centres unmarked) [BC19394]
100 to 1000	< 100	–	–	–	Cc1ccc(S(=O)(=O)c2nc3cc(C(=O)N4CCN(C)CC4)ccc3nc2-c2ccc(F)cc2)cc1F [BC19307]
< 100	> 10000	–	–	–	CN1CCN(C(=O)c2ccc3nc(-c4ccc(F)cc4)c(-c4cccs4)nc3c2)CC1 [BC19185]
> 10000	> 10000	–	–	–	CN1CCN(C(=O)c2ccc3nc(C(F)(F)F)c(-c4cccc(F)c4)nc3c2)CC1 [BC19142]
100 to 1000	100 to 1000	–	–	–	CN(C)CCCNC(=O)Nc1ccc2nc(-c3ccc(F)cc3)c(-c3ccc(F)cc3)nc2c1 [BC19573]
–	–	< 100	–	> 10000	CC1Oc2cc(S(=O)(=O)Nc3ccc(F)c(F)c3)c(Br)cc2N(C)C1=O (centres unmarked) [BC19788]
100 to 1000	1000 to 10000	–	–	–	O=C(NCc1cccnc1)Nc1ccc2nc(-c3ccc(F)cc3)c(-c3ccc(F)cc3)nc2c1 [BC19571]
–	–	< 100	> 10000	–	CC1Oc2c(cc(Br)cc2S(=O)(=O)Nc2ccc(F)c(F)c2)N(C)C1=O (centres unmarked) [BC19787]
–	–	1000 to 10000	> 10000	–	COc1ccc2[nH]cc(S(=O)(=O)c3ccc(F)c(F)c3)c(=O)c2n1 [BC 19203]
< 100	> 10000	–	–	–	N=C(NO)c1ccc2nc(-c3ccc(F)cc3)c(-c3ccc(F)cc3)nc2c1 [BC19194]
100 to 1000	> 10000	–	–	–	CCNS(=O)(=O)c1ccc2nc(-c3ccc(F)cc3)c(-c3ccc(F)cc3)nc2c1 [BC19556]
1000 to 10000	100 to 1000	–	–	–	CCC[S+]([O-])c1sc(-c2cccc(F)c2)nc1S(=O)(=O)c1ccc(Cl)cc1 (centres unmarked) [BC19531]
–	–	1000 to 10000	> 10000	–	COc1ccc(NS(=O)(=O)c2cc3c(cc2Cl)NC(=O)C(C)O3)cc1Cl (centres unmarked) [BC19280]
–	–	< 100	> 10000	–	CC1Oc2c(cc(Br)cc2S(=O)(=O)Nc2ccc(F)cc2Cl)N(C)C1=O (centres unmarked) [BC19908]
